For 23 molecules, IC50 and EC50 results are on record in patent US11066414B2, “Cot modulators and methods of use thereof” (Gilead Sciences, Inc., priority 2015, dated 2021).

One test has as its target Human Cot (Homo sapiens (Human), UniProt P41279). As to the kind of experiment: High Throughput Cot Biochemical Assay. Conditions: Cot HTRF (TR-FRET) biochemical assay.
Another test concerns TNFα. As to the kind of experiment: Cot Monocyte TNFα Cell Based Assay.
Setting [1] is: Homo sapiens, Monocyte, read-out: EC50 TNF, LPS-stimulated human monocytes, TNFα.
The mark [2] stands for this setting: read-out: EC50 TNF, LPS-stimulated human monocytes, TNFα.

Read-outs that look alike come from different tables or passages of the source.

Chain of Human Cot (P41279 30-397): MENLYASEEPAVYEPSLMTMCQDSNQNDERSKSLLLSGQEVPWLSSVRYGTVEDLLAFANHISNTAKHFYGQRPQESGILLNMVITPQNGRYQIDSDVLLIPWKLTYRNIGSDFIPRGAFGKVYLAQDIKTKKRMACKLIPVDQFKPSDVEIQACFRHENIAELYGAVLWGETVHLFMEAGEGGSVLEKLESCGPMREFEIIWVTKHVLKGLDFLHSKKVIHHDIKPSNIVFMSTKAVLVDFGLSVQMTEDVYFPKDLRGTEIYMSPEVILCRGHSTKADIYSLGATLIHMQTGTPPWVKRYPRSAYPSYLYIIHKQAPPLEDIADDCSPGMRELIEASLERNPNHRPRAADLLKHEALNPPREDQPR

For `CC(C)n1cc([C@@H](Nc2cc(Cl)c3ncc(C#N)c(Nc4ccc(F)c(Cl)c4)c3c2)c2cscn2)nn1` [Example 357, (S)-8-chloro-4-((3-chloro-4-fluorophenyl)amino)-6-(((1-isopropyl-1H-1,2,3-triazol-4-yl)(thiazol-4-yl)methyl)amino)quinoline-3-carbonitrile], the IC50 against Human Cot (IC50 HTRF) stood at 5 nM. Further, the EC50 in the test with TNFα (setting [1]) came out at 235 nM.
Consider `COCCn1cc([C@@H](Nc2cc(Cl)c3ncc(C#N)c(Nc4ccc(F)c(Cl)c4)c3c2)c2cscn2)nn1` [Example 358, (S)-8-chloro-4-((3-chloro-4-fluorophenyl)amino)-6-(((1-(2-methoxyethyl)-1H-1,2,3-triazol-4-yl)(thiazol-4-yl)methyl)amino)-quinoline-3-carbonitrile], for which, at Human Cot (IC50 HTRF), the IC50 came to 3 nM. For the same molecule, in the test on TNFα (setting [1]), the EC50 was determined as 130 nM.
Take `N#Cc1cnc2c(Cl)cc(N[C@@H](c3cscn3)c3cn(CCN)nn3)cc2c1Nc1ccc(F)c(Cl)c1` [Example 359, (S)-6-(((1-(2-arninoethyl)-1H-1,2,3-triazol-4-yl)(thiazol-4-yl)methyl)-amino)-8-chloro-4-((3-chloro-4-fluorophenyl)amino)quinoline-3-carbonitrile]: at Human Cot (read-out: IC50 HTRF), the IC50 came to 3 nM. Further, the EC50 with TNFα (setting [2]) is 729 nM.
`CN(C)CCCn1cc([C@@H](Nc2cc(Cl)c3ncc(C#N)c(Nc4ccc(F)c(Cl)c4)c3c2)c2cscn2)nn1` [Example 360, (S)-8-chloro-4-((3-chloro-4-fluorophenyl)amino)-6-(((1-(3-(dimethylamino)propyl)-1H-1,2,3-triazol-4-yl)(thiazol-4-yl)methyl)-amino)quinoline-3-carbonitrile] registered a 50% inhibitory concentration (IC50) against Human Cot (IC50 HTRF) of 4 nM. For the same molecule, the EC50 in the test on TNFα (setting [1]) amounted to 151 nM.
Molecule `N#Cc1cnc2c(Cl)cc(N[C@@H](c3cscn3)c3cn(C4COC4)nn3)cc2c1Nc1ccc(F)c(Cl)c1` [Example 363, (S)-8-chloro-4-((3-chloro-4-fluorophenyl)amino)-6-(((1-(oxetan-3-yl)-1H-1,2,3-triazol-4-yl)(thiazol-4-yl)methyl)amino)quinoline-3-carbonitrile] yielded an IC50 at Human Cot (IC50 HTRF) of 4 nM. In the test on TNFα (setting [1]), the EC50 was 257 nM.
`N#CCn1cc([C@@H](Nc2cc(Cl)c3ncc(C#N)c(Nc4ccc(F)c(Cl)c4)c3c2)c2cscn2)nn1` [Example 364, (S)-8-chloro-4-((3-chloro-4-fluorophenyl)amino)-6-(((1-(cyanomethyl)-1H-1,2,3-triazol-4-yl)(thiazol-4-yl)methyl)amino)-quinoline-3-carbonitrile]: on Human Cot (IC50 HTRF), the IC50 worked out at 7 nM. The EC50 in the test on TNFα (setting [1]) was 241 nM.
`CCN1CCC(n2cc(C(Nc3cc(Cl)c4ncc(C#N)c(Nc5ccc(F)c(Cl)c5)c4c3)c3cncnc3)nn2)CC1` (stereo not shown) [Example 366, 8-chloro-4-((3-chloro-4-fluorophenyl)amino)-6-(((1-(1-ethylpiperidin-4-yl)-1H-1,2,3-triazol-4-yl)(pyrimidin-5-yl)methyl)amino)-quinoline-3-carbonitrile] came in with an IC50 against Human Cot (IC50 HTRF) of 5 nM. In addition, the EC50 with TNFα (setting [1]) stood at 336 nM.
`CCN1CCC(n2cc([C@H](c3cccnc3)N(CC)c3cc(Cl)c4ncc(C#N)c(Nc5ccc(F)c(Cl)c5)c4c3)nn2)CC1` [Example 368, (S)-8-chloro-4-((3-chloro-4-fluorophenyl)amino)-6-(ethyl((1-(1-ethylpiperidin-4-yl)-1H-1,2,3-triazol-4-yl)(pyridin-3-yl)methyl)-amino)quinoline-3-carbonitrile]: the 50% inhibitory concentration (IC50) at Human Cot (IC50 HTRF) was 649 nM. Also, the EC50 with TNFα (setting [1]) is 6300 nM.
On to `CC(C)(C)N1CCC(n2cc([C@@H](Nc3cc(Cl)c4ncc(C#N)c(Nc5ccc(F)c(Cl)c5)c4c3)c3cncs3)nn2)CC1` [Example 370], for which, on Human Cot (read-out: IC50 HTRF), the IC50 worked out at 8 nM. The EC50 with TNFα (setting [2]) turned out to be 232 nM.
Molecule `CCN1CCC(n2cc([C@@H](Nc3cc(Cl)c4ncc(C#N)c(Nc5ccc(F)c(Cl)c5)c4c3)c3cscc3Cl)nn2)CC1` [Example 371, (S)-8-chloro-4-((3-chloro-4-fluorophenyl)amino)-6-(((4-chlorothiophen-3-yl)(1-(1-ethylpiperidin-4-yl)-1H-1,2,3-triazol-4-yl)methyl)-amino)quinoline-3-carbonitrile] returned an IC50 at Human Cot (IC50 HTRF) of 2 nM. The EC50 with TNFα (setting [1]) was determined as 173 nM.
On to `CCN1CCC(n2cc([C@@H](Nc3cc(Cl)c4ncc(C#N)c(Nc5ccc(F)c(Cl)c5)c4c3)c3cc(C#N)cs3)nn2)CC1` [Example 372, (R)-8-chloro-4-((3-chloro-4-fluorophenyl)amino)-6-(((4-cyanothiophen-2-yl)(1-(1-ethylpiperidin-4-yl)-1H-1,2,3-triazol-4-yl)methyl)-amino)quinoline-3-carbonitrile], for which the IC50 against Human Cot (IC50 HTRF) worked out at 2 nM. The EC50 with TNFα (setting [1]) worked out at 81 nM.
`CCCN1CCC(n2cc([C@@H](Nc3cc(Cl)c4ncc(C#N)c(Nc5ccc(F)c(Cl)c5)c4c3)c3cncs3)nn2)CC1` [Example 373, (R)-8-chloro-4-((3-chloro-4-fluorophenyl)amino)-6-(((1-(1-propylpiperidin-4-yl)-1H-1,2,3-triazol-4-yl)(thiazol-5-yl)methyl)amino)-quinoline-3-carbonitrile] registered an IC50 against Human Cot (IC50 HTRF) of 3 nM. Moreover, in the test with TNFα (setting [1]), the EC50 amounted to 81 nM.
With `N#Cc1cnc2c(Cl)cc(N[C@H](c3cn(C4CCNCC4)nn3)c3cncs3)cc2c1Nc1ccc(F)c(Cl)c1` [Example 375, (R)-8-chloro-4-((3-chloro-4-fluorophenyl)amino)-6-(((1-(piperidin-4-yl)-1H-1,2,3-triazol-4-yl)(thiazol-5-yl)methyl)amino)quinoline-3-carbonitrile], half-maximal inhibition at Human Cot (IC50 HTRF) (IC50) was put at 4 nM. Further, the 50% effective concentration (EC50) with TNFα (setting [1]) was 1510 nM.
As to `N#Cc1cnc2c(Cl)cc(NC(c3cccnc3)c3ccccn3)cc2c1Nc1ccc(F)c(Cl)c1` (stereo not shown) [Example 376, 8-chloro-4-((3-chloro-4-fluorophenyl)amino)-6-((pyridin-2-yl(pyridin-3-yl)methyl)amino)-quinoline-3-carbonitrile], the IC50 at Human Cot (read-out: IC50 HTRF) was 182 nM. In the test on TNFα (setting [1]), the EC50 is greater than 1000 nM.
On the same counts, the results for `N#Cc1cnc2c(Cl)cc(NC(c3ccccn3)c3ccccn3)cc2c1Nc1ccc(F)c(Cl)c1` [Example 377, 8-chloro-4-((3-chloro-4-fluoro-phenyl)amino)-6-((di(pyridin-2-yl)methyl)amino)quinoline-3-carbonitrile] are 398 nM and greater than 1000 nM.
The molecule `CCN1CCC(n2cc([C@@H](Nc3cc(Cl)c4ncc(C#N)c(Nc5ccc(F)c(Cl)c5)c4c3)c3cncs3)nn2)CC1` [Example 378, (R)-8-chloro-4-((3-chloro-4-fluoro-phenyl)amino)-6-(((1-(1-ethylpiperidin-4-yl)-1H-1,2,3-triazol-4-yl)(thiazol-5-yl)methyl)amino)quinoline-3-carbonitrile] came in with an IC50 against Human Cot (IC50 HTRF) of 2 nM. The EC50 in the test with TNFα (setting [1]) came to 168 nM.
On the same counts, the results for `CCN1CCC(n2cc([C@@H](Nc3cc(Cl)c4ncc(C#N)c(Nc5ccc(F)c(Cl)c5)c4c3)c3ccc(Cl)nc3)nn2)CC1` [Example 379, (S)-8-chloro-4-((3-chloro-4-fluoro-phenyl)amino)-6-(((6-chloropyridin-3-yl)(1-(1-ethylpiperidin-4-yl)-1H-1,2,3-triazol-4-yl)methyl)amino)quinoline-3-carbonitrile] are 6 nM and 179 nM.
With `CCN1CCC(n2cc([C@@H](Nc3cc(Cl)c4ncc(C#N)c(Nc5ccc(F)c(Cl)c5)c4c3)c3cc(Cl)cs3)nn2)CC1` [Example 381, (R)-8-chloro-4-((3-chloro-4-fluoro-phenyl)amino)-6-(((4-chlorothiophen-2-yl)(1-(1-ethylpiperidin-4-yl)-1H-1,2,3-triazol-4-yl)methyl)amino)-quinoline-3-carbonitrile], half-maximal inhibition against Human Cot (IC50 HTRF) (IC50) was put at 7 nM. Moreover, the EC50 in the test on TNFα (setting [1]) came out at 303 nM.
Regarding `CCN1CCC(n2cc([C@@H](Nc3cc(Cl)c4ncc(C#N)c(Nc5ccc(F)c(Cl)c5)c4c3)c3sccc3Cl)nn2)CC1` [Example 389, (R)-8-chloro-4-((3-chloro-4-fluoro-phenyl)amino)-6-(((3-chlorothiophen-2-yl)(1-(1-ethylpiperidin-4-yl)-1H-1,2,3-triazol-4-yl)methyl)amino)-quinoline-3-carbonitrile], the IC50 against Human Cot (IC50 HTRF) stood at 11 nM. Also, the EC50 with TNFα (setting [1]) was found to be 328 nM.
With `Cn1cnc(C(Nc2cc(Cl)c3ncc(C#N)c(Nc4ccc(F)c(Cl)c4)c3c2)c2cccnc2)c1` (stereo not shown) [Example 403, 8-chloro-4-((3-chloro-4-fluoro-phenyl)amino)-6-(((1-methyl-1H-imidazol-4-yl)(pyridin-3-yl)methyl)-amino)quinoline-3-carbonitrile], the IC50 on Human Cot (read-out: IC50 HTRF) is 9 nM. For the same molecule, in the test with TNFα (setting [1]), the EC50 turned out to be 290 nM.
At Human Cot (IC50 HTRF), `N#Cc1cnc2c(Cl)cc(NC(c3cccnc3)c3cn(C4CCNCC4)nn3)cc2c1Nc1ccc(F)c(Cl)c1` (stereo not shown) [Example 405, 8-chloro-4-((3-chloro-4-fluoro-phenyl)amino)-6-(((1-(piperidin-4-yl)-1H-1,2,3-triazol-4-yl)(pyridin-3-yl)methyl)amino)quinoline-3-carbonitrile] came in with an IC50 of 2 nM. Further, the concentration for a half-maximal effect (EC50) with TNFα (setting [1]) is 1040 nM.
For the molecule `CC(C)(C)CNc1c(C#N)cnc2c(Br)cc(N[C@H](c3cn(C4(C(N)=O)CC4)nn3)c3cccc4ncsc34)cc12` [Example 408, (S)-1-(4-(benzo[d]thiazol-7-yl((8-bromo-3-cyano-4-(neopentylamino)-quinolin-6-yl)amino)methyl)-1H-1,2,3-triazol-1-yl)cyclopropane-1-carboxamide], the 50% inhibitory concentration (IC50) against Human Cot (IC50 HTRF) turned out to be 1 nM. Further, in the test on TNFα (setting [1]), the EC50 amounted to 88 nM.
For `CC(C)(C)CNc1c(C#N)cnc2c(C#N)cc(N[C@H](c3cn(C4(C(N)=O)CC4)nn3)c3cccc4ncsc34)cc12` [Example 409, (S)-1-(4-(benzo[d]thiazol-7-yl((3,8-dicyano-4-(neopentylamino)quinolin-6-yl)amino)methyl)-1H-1,2,3-triazol-1-yl)cyclopropane-1-carboxamide], at Human Cot (IC50 HTRF), the IC50 came out at 1 nM. Further, the EC50 with TNFα (setting [1]) was found to be 559 nM.
